The values below come from US9408854B2, “Methods and systems for pharmacogenomic treatment of cardiovascular conditions” (ROSTAQUO S.P.A., priority 2009, dated 2016).

The subject of data set [1] is Na—K Pump and cSrc. The experiment in a line: Correction of the effect of mutated adducin or ouabain on Na-K pump and cSrc in animals. Format: in vivo. Conditions: nanomoles doses in animals.
Data set [2] can be described thus: Maximal tolerated dose without any effects (NOAEL) in animals. Conditions: in vivo, read-out: maximal tolerated dose that does not produce any effects (NOAEL).
Data set [3] concerns Na—K Pump and cSrc. The experiment in a line: In vitro correction of the effect of mutated adducin or ouabain on Na-K pump and cSrc. Format: biochemical. Particulars: picomolar concentrations in vitro.
In data set [4] the test system is hypertensive patients. In words: Pharmacogenomic study: change of office systolic blood pressure (DSBP5_0) after 5 weeks of rostafuroxin vs placebo, by genotype. Conditions: 0.05 to 0.50 mg/day vs 1.5 to 5 mg/day. Format: in vivo, human.
In data set [5] the test system is hypertensive patients. The experiment in a line: Two separate studies: blood pressure change with HCTZ, Losartan and rostafuroxin in patients carrying profile 4, 8 or 9. Conditions: preliminary data. The class given is in vivo, human. From the text: In particular, individuals carrying profile 4 show a modification in blood pressure of: −12.3±1.5 mmHg with HCTZ; −11.3±1.7 with Losartan and −18.74±1.8 mmHg with rostafuroxin; individuals with profile 8 show the a decrease in blood pressure of −11.3±1.2 with HCTZ; −11.6±1.3 with Losartan and −15.2±1.5 mmHg with rostafuroxin; individuals with profile 9 show the a decrease in blood pressure of −11.9±1.2 with HCTZ; −11.4±1.4 with Losartan and −15.2±1.5 mmHg with rostafuroxin.

Usually NOAEL stands for the highest tested level that showed no adverse finding. On to `C[C@]12CC[C@H](O)C[C@H]1CC[C@@H]1[C@@H]2CC[C@]2(C)[C@@](O)(c3ccoc3)CC[C@]12O` [rostafuroxin, 17β-(3-furyl)-5β-androstane-3β,14β,17α-triol], for which the “correction of the effect of mutated adducin or ouabain on Na—K Pump and cSrc” value in data set [1] was “able to selectively correct the effect of mutated adducin or ouabain on Na—K Pump and cSrc, without blocking the effect of wild adducin”; in data set [3] it was “able to selectively correct the effect of mutated adducin or ouabain on Na—K Pump and cSrc, without blocking the effect of wild adducin”. The no observed adverse effect level (NOAEL) in data set [2] was determined as 100 mg/kg. Also, the “drop of night blood pressure, low doses vs high doses” value in data set [4] is “relevantly higher drop of night blood pressure as compared to high doses”. The “modification in blood pressure” value in data set [5] (individuals carrying profile 4) is recorded as −18.74±1.8 mmHg. Further, the “decrease in blood pressure” value in data set [5] (individuals with profile 8) and in data set [5] (individuals with profile 9) was −15.2±1.5 mmHg each time.
